The nature of series [1]: GSK_TCAKS: pIC50 HepG2 human cell line viability assay using luminiscence. […] Seeding density was checked to ensure that new mono-layers were not more than 50% confluent at the time of harvesting. Cell suspension was added to 500 mL of the same medium at a final density of 1.2 * 10^5 cells/mL. This cell suspension was dispensed (25 uL, 3000 cells per well) into 384-well clear-bottom plates using a Multidrop Combi dispenser. Prior to addition of the cell suspension, the screening compounds (250 nL) were pre-dispensed into the plates with an Echo liquid handler. Plates were incubated for 48 h at 37C, 5% CO2. After incubation, plates equilibrated at room temperature for 30 min before proceeding to develop the luminescent signal. The signal developer, CellTiter-Glo Reagent, was allowed to equilibrate at room temperature for 30 min and added to the plates (25uL per well) using a Multidrop Combi dispenser. Plates were left for 10 min at room temperature for stabilization and then read using a ViewLux. In kind it is toxicity, cell-based. In general terms: Cellular ATP, detected with luciferase, serves as a proxy for viable cell number.

Series [2] concerns Trypanosoma cruzi. Put plainly: GSK_TCAKS: pIC50 Trypanosoma cruzi viability assay using beta-GAL activity. This assay was run at single shot at 5uM compound concentration per well. The biological reagents consisted of NIH-3T3 host cells and trypomastigotes parasitic cells; both cell types were set to a 3.3 * 10^5 cells/mL dilution in assay DMEM by means of a CASY cell counter device using a 60um capillary. 6 uL of the mixture were dispensed per well (about 1 * 10^3 host-cells and 1 * 10^3 parasites) with a Multidrop Combi dispenser. […] In all wells, the percentage of DMSO never exceeded 0.5%. Plates incubated for four days at 37C, 5% CO2. The substrate used for the assay fluorescence intensity (FLINT) readout was resorufin-beta-D-galactopiranoside (Sigma-Aldrich) at 5uM per well. It was diluted in PBS supplemented with the soft detergent Igepal (Fluka). In kind it is functional, organism-based, Mus musculus. Conditions: Tulahuen, NIH3T3.

Series [3] has as its system Trypanosoma cruzi. Put plainly: GSK_TCAKS: pIC50 Trypanosoma cruzi Imaging: Amastigotes/Cell. […] Cells were then washed once with PBS before infection. T. cruzi trypomastigotes, collected at days 5 to 8 after infection from LLC-MK2 parasite infected cultures, were allowed to swim out for 4h at 37C from a centrifuged pellet (2,500 rpm/10 min/room temperature). Trypomastigotes were then collected and counted in a CASY Cell Counter. Trypomastigotes, in supplemented DMEM, were added to H9c2 cultures in a multiplicity of infection of 1 and incubated for 18 h. Cells were washed once with PBS before incubation of the infected H9c2 monolayer with trypsin (Life-Technologies) to detach cells from the flask. Cells were counted in a CASY Cell Counter using a 150 um capillary and their density set at 5 * 10^4 cells per mL in supplemented assay DMEM. Infected H9c2 were dispensed into 384-well poly-lysine coated assay plates at 50uL per well using a Multidrop Combi dispenser. After seeding them, the plates were incubated at 37C, 5% CO2 for 72h. Cultures were then fixed and stained by addition of 50 uL of a solution containing 8% formaldehyde and 4 uM DRAQ5 DNA dye (BioStatus, UK) per well. […] Five images were collected per well for reliable statistical analysis. Automated image analysis was performed with a script developed on Acapella High Content Imaging and Analysis Software (PerkinElmer). Output: number of amastigotes per cell as infection level measurement. In kind it is functional, organism-based, Rattus norvegicus. The following applies: H9c2, 4 h.

Series [4] concerns Leishmania donovani. Nature of the series: GSK_TCAKS: pIC50 Leishmania donovani Imaging: THP-1 Host Macrophages. Assay plates (384-well) were prepared by adding 250nL of compound to each well. For single shot assay, the final compound concentration was 5 uM. […] Automated image analysis was performed with a script developed on Acapella High Content Imaging and Analysis Software (PerkinElmer). Output: THP-1 cell count were reported for each well. In kind it is functional, organism-based, Homo sapiens.

Series [5] relates to Leishmania donovani. Put plainly: GSK_TCAKS: pIC50 Leishmania donovani Imaging: Amastigotes/Macrophages. Assay plates (384-well) were prepared by adding 250nL of compound to each well. For single shot assay, the final compound concentration was 5 uM. […] Automated image analysis was performed with a script developed on Acapella High Content Imaging and Analysis Software (PerkinElmer). Output: Average number of amastigotes per macrophage cell were reported for each well. Conditions: THP-1. In kind it is functional, organism-based, Homo sapiens.

Series [6] concerns Trypanosoma cruzi. Put plainly: (§1) GSK_TCAKS: pIC50 Trypanosoma cruzi Imaging: Infected Cells. […] Cells were then washed once with PBS before infection. T. cruzi trypomastigotes, collected at days 5 to 8 after infection from LLC-MK2 parasite infected cultures, were allowed to swim out for 4h at 37C from a centrifuged pellet (2,500 rpm/10 min/room temperature). Trypomastigotes were then collected and counted in a CASY Cell Counter. Trypomastigotes, in supplemented DMEM, were added to H9c2 cultures in a multiplicity of infection of 1 and incubated for 18 h. Cells were washed once with PBS before incubation of the infected H9c2 monolayer with trypsin (Life-Technologies) to detach cells from the flask. Cells were counted in a CASY Cell Counter using a 150 um capillary and their density set at 5 * 10^4 cells per mL in supplemented assay DMEM. Infected H9c2 were dispensed into 384-well poly-lysine coated assay plates at 50uL per well using a Multidrop Combi dispenser. After seeding them, the plates were incubated at 37C, 5% CO2 for 72h. Cultures were then fixed and stained by addition of 50 uL of a solution containing 8% formaldehyde and 4 uM DRAQ5 DNA dye (BioStatus, UK) per well. […] Five images were collected per well for reliable statistical analysis. Automated image analysis was performed with a script developed on Acapella High Content Imaging and Analysis Software (PerkinElmer). Output: percentage of infected cells per well as a second infection marker. In kind it is functional, organism-based, Rattus norvegicus. The following applies: H9c2, 4 h.

The test system of series [7] is Leishmania donovani. Nature of the series: GSK_TCAKS: pIC50 Leishmania donovani Imaging: Infected Macrophages. Assay plates (384-well) were prepared by adding 250nL of compound to each well. For single shot assay, the final compound concentration was 5 uM. […] Automated image analysis was performed with a script developed on Acapella High Content Imaging and Analysis Software (PerkinElmer). Output: Percent of infected macrophage cells were reported for each well. The following applies: THP-1. In kind it is functional, organism-based, Homo sapiens.

Series [8] has as its system Trypanosoma brucei brucei. Nature of the series: GSK_TCAKS: pIC50 Trypanosoma brucei viability assay using fluorescence intensity. Assay plates (1536-well) were prepared by dispensing 25nL of compound solution per well using an Echo acoustic dispenser (Labcyte). In kind it is functional, organism-based. The following applies: Lister 427, 2 h.
Series [9] deals with Trypanosoma cruzi. Described as §1, with “H2C9” for “Trypanosoma cruzi”, “H9c2 Host Cardiomyocytes.” for “Infected Cells.”, “Number” for “percentage”, “H9c2 Host Cardiomyocytes nuclei to determine drug-related cytotoxicity.” for “infected cells per well as a second infection marker.”. In kind it is functional, organism-based, Rattus norvegicus. Conditions: H9c2, 4 h.
Series [10] deals with Trypanosoma brucei brucei. Nature of the series: GSK_TCAKS: pIC50 Trypanosoma brucei viability assay using luminiscence. Assay plates (1536-well) were prepared. T. brucei cultures were harvested and counted in a CASY cell counter. A parasite suspension was prepared at a final concentration of 5 * 10^4 cells/mL in complete HMI9 medium and 6uL was dispensed to all wells containing compounds using a Multidrop Combi dispenser. 6uL of HMI9 media with 0.4% DMSO were dispensed to control columns. Plates were incubated for 24 h at 37C, 5% CO2 then tempered for 10 min at room temperature. ATP content was quantified by adding 4 uL of CellTiter-Glo Reagent (Promega) according to the manufacturer's instructions. Luminescence was measured using a ViewLux. In kind it is functional, organism-based. The following applies: Lister 427, CASY.

Series [11] concerns Leishmania donovani. Nature of the series: GSK_TCAKS: pIC50 Leishmania donovani viability assay using fluorescence intensity. Assay plates (1536-well) were prepared by adding 30nL per well of compound. For single shot assay, the final compound concentration was 5uM. […] Briefly, eGFP LdBOB axenic amastigotes were harvested, fixed and counted in a CASY cell counter (Roche-Applied Science). A final concentration of 1.5 * 10^5 cells per well were prepared in amastigote media containing 500 U/mL penicillin/streptomycin (Invitrogen) and 6uL was dispensed to each experimental well using a Multidrop Combi dispenser (Thermo Scientific). 6uL of assay media was dispensed to control columns used as reference for 100% compound response. Following incubation for 72 h at 37C, 5% CO2, 2 uL of resazurin was added to each well at a final concentration of 0.5 mM in phosphate buffered saline (PBS) with IGEPAL (Sigma-Aldrich), 0.05% (v/v). In kind it is functional, organism-based. On the technique in general: Resazurin is reduced to fluorescent resorufin, in cell work by metabolically active cells.

The target in series [12] is Sterol 14-alpha demethylase (Trypanosoma cruzi (strain CL Brener), UniProt Q7Z1V1). Put plainly: GSK_TCAKS: pIC50 CYP51 from Trypanosoma cruzi. In kind it is functional.
Chain of Sterol 14-alpha demethylase (Q7Z1V1 whole entry): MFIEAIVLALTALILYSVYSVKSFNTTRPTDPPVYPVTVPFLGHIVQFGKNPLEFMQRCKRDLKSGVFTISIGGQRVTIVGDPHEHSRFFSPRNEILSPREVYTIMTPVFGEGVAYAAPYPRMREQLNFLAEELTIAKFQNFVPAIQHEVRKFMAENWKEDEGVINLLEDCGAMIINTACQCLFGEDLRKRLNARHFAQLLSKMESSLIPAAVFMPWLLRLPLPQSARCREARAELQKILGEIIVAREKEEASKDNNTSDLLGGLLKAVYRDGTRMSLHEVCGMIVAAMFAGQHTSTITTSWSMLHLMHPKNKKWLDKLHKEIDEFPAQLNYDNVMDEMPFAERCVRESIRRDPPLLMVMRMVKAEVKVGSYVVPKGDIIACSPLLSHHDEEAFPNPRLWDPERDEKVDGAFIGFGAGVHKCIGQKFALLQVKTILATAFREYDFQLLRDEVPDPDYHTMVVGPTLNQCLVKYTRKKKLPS

The structures appear in SMILES notation. Some results are limits rather than exact numbers.

`CC(C)CC(=O)NC(c1cccs1)c1ccc2cccnc2c1O` (centres undefined): the IC50 at 48 h in [1] is more than 100000 nM. Also, the half-maximal inhibitory concentration (IC50) with Trypanosoma cruzi [2] was 1580 nM; in the series on Trypanosoma cruzi [3] it was 794 nM; in the series with Leishmania donovani [4] it was 1580 nM; in the series with Leishmania donovani [5], 3160 nM; with Trypanosoma cruzi [6], 1260 nM; with Leishmania donovani [7], 7940 nM. Besides, the IC50 in series [8] is 631 nM; with Trypanosoma cruzi [9], 2000 nM; in [10], 631 nM; in the series on Leishmania donovani [11], 6310 nM; in [12], 50100 nM.
The compound `O=C(COc1ccccc1)Nc1ccccc1C(=O)Nc1nccs1` gave an IC50 at 48 h in series [1] of more than 100000 nM. Further, the IC50 is more than 50100 nM in the series with Trypanosoma cruzi [2]; more than 50100 nM with Trypanosoma cruzi [3]; 7940 nM with Leishmania donovani [4]; more than 50100 nM in the series on Leishmania donovani [5]; more than 50100 nM in the series with Trypanosoma cruzi [6]; more than 50100 nM in the series on Leishmania donovani [7]. Besides, the IC50 was 398 nM in series [8]; more than 50100 nM with Trypanosoma cruzi [9]; 631 nM in series [10]; more than 50100 nM in the series with Leishmania donovani [11]; more than 100000 nM in series [12].
In [1], `CCOc1ccccc1C(=O)Nc1nnc(-c2ccc3c(c2)OCO3)s1` gave an IC50 at 48 h of more than 100000 nM. The IC50 is 631 nM in the series on Trypanosoma cruzi [2]; 63.1 nM with Trypanosoma cruzi [3]; more than 50100 nM with Leishmania donovani [4]; 316 nM in the series with Leishmania donovani [5]; 79.4 nM in the series on Trypanosoma cruzi [6]; 501 nM in the series on Leishmania donovani [7]. For the same compound, the IC50 in series [8] is more than 39800 nM; in the series on Trypanosoma cruzi [9] it was more than 50100 nM; in series [10] it was more than 39800 nM; with Leishmania donovani [11], 794 nM; in series [12], more than 100000 nM.
In series [1], `COc1ccc(-c2csc(NC(=O)c3ccc([N+](=O)[O-])s3)n2)cc1OC` had an IC50 at 48 h of 10000 nM. Further, the IC50 in the series on Trypanosoma cruzi [2] is 100 nM; in the series with Trypanosoma cruzi [3], 79.4 nM; in the series on Leishmania donovani [4], 31600 nM; in the series on Leishmania donovani [5] it was 1260 nM; with Trypanosoma cruzi [6] it was 100 nM; in the series on Leishmania donovani [7], 1260 nM. Besides, the IC50 is 126 nM in series [8]; 6310 nM in the series on Trypanosoma cruzi [9]; 631 nM in [10]; 1000 nM with Leishmania donovani [11]; more than 100000 nM in series [12].
The compound `O=C(CN1CCN(S(=O)(=O)c2cccc([N+](=O)[O-])c2)CC1)Nc1ccc(Oc2ccccc2)cc1` gave an IC50 at 48 h in series [1] of more than 100000 nM. Also, the IC50 is 2510 nM with Trypanosoma cruzi [2]; 1260 nM with Trypanosoma cruzi [3]; more than 50100 nM in the series on Leishmania donovani [4]; 2000 nM with Leishmania donovani [5]; 2510 nM with Trypanosoma cruzi [6]; 7940 nM with Leishmania donovani [7]. Further, the IC50 in [8] is 20000 nM; with Trypanosoma cruzi [9], more than 50100 nM; in series [10], 15800 nM; in the series on Leishmania donovani [11], 3980 nM; in series [12], 2510 nM.
The compound `COc1ccc2ncc(F)c(CCN3CC[C@@H](NC(=O)c4cc5c(s4)CCC5)[C@@H](O)C3)c2n1` gave an IC50 at 48 h in [1] of 50100 nM. For the same compound, the IC50 was 158 nM in the series on Trypanosoma cruzi [2]; 50.1 nM in the series on Trypanosoma cruzi [3]; 25100 nM in the series on Leishmania donovani [4]; 1260 nM with Leishmania donovani [5]; 126 nM with Trypanosoma cruzi [6]; 6310 nM with Leishmania donovani [7]. Also, the concentration for half-maximal inhibition (IC50) in [8] was 100 nM; in the series with Trypanosoma cruzi [9] it was 126 nM; in [10], 316 nM; with Leishmania donovani [11] it was 1000 nM; in series [12], 1260 nM.
In series [1], `CC(=O)NC1(c2ccccc2)CCN(CC(=O)Nc2ccccc2-c2ccccc2)CC1` gave an IC50 at 48 h of more than 100000 nM. Also, the IC50 is 1260 nM in the series on Trypanosoma cruzi [2]; 1580 nM in the series with Trypanosoma cruzi [3]; more than 50100 nM in the series on Leishmania donovani [4]; 39800 nM with Leishmania donovani [5]; 7940 nM in the series with Trypanosoma cruzi [6]; more than 50100 nM with Leishmania donovani [7]. Moreover, the IC50 in series [8] is 631 nM; with Trypanosoma cruzi [9], more than 50100 nM; in series [10], 501 nM; in the series on Leishmania donovani [11], 20000 nM; in series [12], 50100 nM.

Broadly, the IC50 is the concentration at which inhibition is half-maximal.
